Laboratory results: patent US11793849B2, “Method of Chinese herbal medicine extract used for treating multiple diseases caused by drug resistant bacteria infection” (priority 2016, dated 2023)
Values after ≈ are worked out from the molar mass of the structure shown. Like-named read-outs stand apart in the source and are kept apart here.

System: MDRAB
Assay: MIC determination, microdilution broth method
Format: cell-based, Acinetobacter baumannii
Conditions: Acinetobacter baumannii
Experimental: Determination methods of a Minimal Inhibitory Concentration (MIC) and a Minimum Bactericidal Concentration (MBC) of a test product: the MIC and the MBC of the Pithecellobium clypearia Benth water or ethanol extract to the MDRAB are determined by a microdilution broth method. And it is operated by referring to the microdilution broth method recommended by National Committee for Clinical Laboratory Standards (NCCLS).

Compound: C[C@H]1COc2c(N3CCN(C)CC3)c(F)cc3c(=O)c(C(=O)O)cn1c23 [LVX, Levofloxacin]
- MIC (strain A1, EA=60% ethanol extract, read-out: MIC): 0.5 µg/mL (≈ 1.38 µM)
- MIC (strain A1, EA=95% ethanol extract, read-out: MIC): 0.5 µg/mL (≈ 1.38 µM)
- MIC (strain A1, EA=P. clypearia 95% ethanol extract, read-out: single-use MIC): 0.5 µg/mL (≈ 1.38 µM)
- MIC (strain A1, single use, EA=10% ethanol extract, read-out: MIC): 0.5 µg/mL (≈ 1.38 µM)
- MIC (strain A1, single use, EA=water extract, read-out: MIC): 0.5 µg/mL (≈ 1.38 µM)
- MIC (strain A2, EA=60% ethanol extract, read-out: MIC): 16 µg/mL (≈ 44.3 µM)
- MIC (strain A2, EA=95% ethanol extract, read-out: MIC): 16 µg/mL (≈ 44.3 µM)
- MIC (strain A2, EA=P. clypearia 95% ethanol extract, read-out: single-use MIC): 16 µg/mL (≈ 44.3 µM)
- MIC (strain A2, single use, EA=10% ethanol extract, read-out: MIC): 16 µg/mL (≈ 44.3 µM)
- MIC (strain A2, single use, EA=water extract, read-out: MIC): 16 µg/mL (≈ 44.3 µM)
- MIC (strain A3, EA=60% ethanol extract, read-out: MIC): 4 µg/mL (≈ 11.1 µM)
- MIC (strain A3, EA=95% ethanol extract, read-out: MIC): 4 µg/mL (≈ 11.1 µM)
- MIC (strain A3, EA=P. clypearia 95% ethanol extract, read-out: single-use MIC): 16 µg/mL (≈ 44.3 µM)
- MIC (strain A3, single use, EA=10% ethanol extract, read-out: MIC): 4 µg/mL (≈ 11.1 µM)
- MIC (strain A4, EA=60% ethanol extract, read-out: MIC): 0.5 µg/mL (≈ 1.38 µM)
- MIC (strain A4, EA=95% ethanol extract, read-out: MIC): 0.5 µg/mL (≈ 1.38 µM)
- MIC (strain A4, EA=P. clypearia 95% ethanol extract, read-out: single-use MIC): 0.5 µg/mL (≈ 1.38 µM)
- MIC (strain A4, single use, EA=10% ethanol extract, read-out: MIC): 0.5 µg/mL (≈ 1.38 µM)
- MIC (strain A4, single use, EA=water extract, read-out: MIC): 0.5 µg/mL (≈ 1.38 µM)
- MIC (strain A5, EA=60% ethanol extract, read-out: MIC): 4 µg/mL (≈ 11.1 µM)
- MIC (strain A5, EA=95% ethanol extract, read-out: MIC): 4 µg/mL (≈ 11.1 µM)
- MIC (strain A5, single use, EA=10% ethanol extract, read-out: MIC): 4 µg/mL (≈ 11.1 µM)
- MIC (strain A5, single use, EA=water extract, read-out: MIC): 4 µg/mL (≈ 11.1 µM)
- MIC (strain A6, EA=60% ethanol extract, read-out: MIC): 8 µg/mL (≈ 22.1 µM)
- MIC (strain A6, EA=95% ethanol extract, read-out: MIC): 8 µg/mL (≈ 22.1 µM)
- MIC (strain A6, EA=P. clypearia 95% ethanol extract, read-out: single-use MIC): 8 µg/mL (≈ 22.1 µM)
- MIC (strain A6, single use, EA=10% ethanol extract, read-out: MIC): 8 µg/mL (≈ 22.1 µM)
- MIC (strain A6, single use, EA=water extract, read-out: MIC): 8 µg/mL (≈ 22.1 µM)
- MIC (strain A7, EA=60% ethanol extract, read-out: MIC): 8 µg/mL (≈ 22.1 µM)
- MIC (strain A7, EA=95% ethanol extract, read-out: MIC): 8 µg/mL (≈ 22.1 µM)
- MIC (strain A7, EA=P. clypearia 95% ethanol extract, read-out: single-use MIC): 8 µg/mL (≈ 22.1 µM)
- MIC (strain A7, single use, EA=10% ethanol extract, read-out: MIC): 8 µg/mL (≈ 22.1 µM)
- MIC (strain A7, single use, EA=water extract, read-out: MIC): 8 µg/mL (≈ 22.1 µM)
- MIC (strain A8, EA=60% ethanol extract, read-out: MIC): 4 µg/mL (≈ 11.1 µM)
- MIC (strain A8, EA=95% ethanol extract, read-out: MIC): 4 µg/mL (≈ 11.1 µM)
- MIC (strain A8, EA=P. clypearia 95% ethanol extract, read-out: single-use MIC): 4 µg/mL (≈ 11.1 µM)
- MIC (strain A8, single use, EA=10% ethanol extract, read-out: MIC): 4 µg/mL (≈ 11.1 µM)
- MIC (strain A8, single use, EA=water extract, read-out: MIC): 4 µg/mL (≈ 11.1 µM)
- MIC (strain A9, EA=60% ethanol extract, read-out: MIC): 4 µg/mL (≈ 11.1 µM)
- MIC (strain A9, EA=95% ethanol extract, read-out: MIC): 4 µg/mL (≈ 11.1 µM)
- MIC (strain A9, EA=P. clypearia 95% ethanol extract, read-out: single-use MIC): 4 µg/mL (≈ 11.1 µM)
- MIC (strain A9, single use, EA=10% ethanol extract, read-out: MIC): 4 µg/mL (≈ 11.1 µM)
- MIC (strain A9, single use, EA=water extract, read-out: MIC): 4 µg/mL (≈ 11.1 µM)
- MIC (strain A10, EA=60% ethanol extract, read-out: MIC): 32 µg/mL (≈ 88.6 µM)
- MIC (strain A10, EA=95% ethanol extract, read-out: MIC): 32 µg/mL (≈ 88.6 µM)
- MIC (strain A10, EA=P. clypearia 95% ethanol extract, read-out: single-use MIC): 32 µg/mL (≈ 88.6 µM)
- MIC (strain A10, single use, EA=10% ethanol extract, read-out: MIC): 32 µg/mL (≈ 88.6 µM)
- MIC (strain A10, single use, EA=water extract, read-out: MIC): 32 µg/mL (≈ 88.6 µM)
- MIC (strain A11, EA=60% ethanol extract, read-out: MIC): 4 µg/mL (≈ 11.1 µM)
- MIC (strain A11, EA=95% ethanol extract, read-out: MIC): 4 µg/mL (≈ 11.1 µM)
- MIC (strain A11, EA=P. clypearia 95% ethanol extract, read-out: single-use MIC): 4 µg/mL (≈ 11.1 µM)
- MIC (strain A11, single use, EA=10% ethanol extract, read-out: MIC): 4 µg/mL (≈ 11.1 µM)
- MIC (strain A11, single use, EA=water extract, read-out: MIC): 4 µg/mL (≈ 11.1 µM)
- MIC (strain A12, EA=60% ethanol extract, read-out: MIC): 32 µg/mL (≈ 88.6 µM)
- MIC (strain A12, EA=95% ethanol extract, read-out: MIC): 32 µg/mL (≈ 88.6 µM)
- MIC (strain A12, EA=P. clypearia 95% ethanol extract, read-out: single-use MIC): 32 µg/mL (≈ 88.6 µM)
- MIC (strain A12, single use, EA=10% ethanol extract, read-out: MIC): 32 µg/mL (≈ 88.6 µM)
- MIC (strain A12, single use, EA=water extract, read-out: MIC): 32 µg/mL (≈ 88.6 µM)
- MIC (strain A13, EA=60% ethanol extract, read-out: MIC): 32 µg/mL (≈ 88.6 µM)
- MIC (strain A13, EA=95% ethanol extract, read-out: MIC): 32 µg/mL (≈ 88.6 µM)
- MIC (strain A13, EA=P. clypearia 95% ethanol extract, read-out: single-use MIC): 32 µg/mL (≈ 88.6 µM)
- MIC (strain A13, single use, EA=10% ethanol extract, read-out: MIC): 32 µg/mL (≈ 88.6 µM)
- MIC (strain A13, single use, EA=water extract, read-out: MIC): 32 µg/mL (≈ 88.6 µM)
- MIC (strain A14, EA=60% ethanol extract, read-out: MIC): 16 µg/mL (≈ 44.3 µM)
- MIC (strain A14, EA=95% ethanol extract, read-out: MIC): 16 µg/mL (≈ 44.3 µM)
- MIC (strain A14, EA=P. clypearia 95% ethanol extract, read-out: single-use MIC): 16 µg/mL (≈ 44.3 µM)
- MIC (strain A14, single use, EA=10% ethanol extract, read-out: MIC): 16 µg/mL (≈ 44.3 µM)
- MIC (strain A14, single use, EA=water extract, read-out: MIC): 16 µg/mL (≈ 44.3 µM)
- MIC (strain A15, EA=60% ethanol extract, read-out: MIC): 32 µg/mL (≈ 88.6 µM)
- MIC (strain A15, EA=95% ethanol extract, read-out: MIC): 32 µg/mL (≈ 88.6 µM)
- MIC (strain A15, EA=P. clypearia 95% ethanol extract, read-out: single-use MIC): 32 µg/mL (≈ 88.6 µM)
- MIC (strain A15, single use, EA=10% ethanol extract, read-out: MIC): 32 µg/mL (≈ 88.6 µM)
- MIC (strain A15, single use, EA=water extract, read-out: MIC): 32 µg/mL (≈ 88.6 µM)
- MIC (strain A16, EA=60% ethanol extract, read-out: MIC): 8 µg/mL (≈ 22.1 µM)
- MIC (strain A16, EA=95% ethanol extract, read-out: MIC): 8 µg/mL (≈ 22.1 µM)
- MIC (strain A16, EA=P. clypearia 95% ethanol extract, read-out: single-use MIC): 8 µg/mL (≈ 22.1 µM)
- MIC (strain A16, single use, EA=10% ethanol extract, read-out: MIC): 8 µg/mL (≈ 22.1 µM)
- MIC (strain A16, single use, EA=water extract, read-out: MIC): 8 µg/mL (≈ 22.1 µM)
- MIC (strain A17, EA=60% ethanol extract, read-out: MIC): 16 µg/mL (≈ 44.3 µM)
- MIC (strain A17, EA=95% ethanol extract, read-out: MIC): 16 µg/mL (≈ 44.3 µM)
- MIC (strain A17, EA=P. clypearia 95% ethanol extract, read-out: single-use MIC): 16 µg/mL (≈ 44.3 µM)
- MIC (strain A17, single use, EA=10% ethanol extract, read-out: MIC): 16 µg/mL (≈ 44.3 µM)
- MIC (strain A17, single use, EA=water extract, read-out: MIC): 16 µg/mL (≈ 44.3 µM)
